Experimental data: US3984470A, “Amidoxime derivatives and process for preparing the same” (priority 1974, dated 1976)
Read-outs that look alike come from different tables or passages of the source.

What was measured:
[1] = system: aggressivity of isolated mice; test: Aggressivity of isolated mice; format: in vivo, male mouse; conditions: Mus musculus, read-out: ED50, inhibition of aggressivity
Experimental: If a male mouse is kept alone in a cage for 3 weeks to 1 month, it will spontanesouly attack any other animal of the same species which is placed in the same cage. If the other animal has also been isolated under the same conditions a series of fights takes place.
Mice were isolated for the period of time required to render them spontaneously aggressive. Couples were then put together and note was taken of the number of fights which took place over a period of 3 minutes. Each batch was composed of four pairs of mice.
The animals of each batch were then treated by intragastric route with the compound to be studied which was administered in such a way that each batch received a higher dose than the preceding batch. […]
The results were expressed in the percentage of decrease in the number of fights between the animals after treatment in comparison with the percentage obtained before treatment which represents the percentage of inhibition of aggressivity.

[2] = system: reserpine-induced ptosis; test: Reserpine-induced ptosis in the rat; format: in vivo, male rats of the CF1 strain; conditions: 10 mg/kg oral; reserpine 5 mg/kg i.p.; score scale 0-4, mean to 6th hour vs controls
Experimental: (§2) The thymoanaleptic properties of the compounds of the invention were determined by means of reserpine-induced ptosis and hypothermia in the rat.
An intraperitoneal dose of 5 mg/kg of reserpine was administered to batches of 5 male rats of the CF1 strain weighing an average of 300 g.
Thirty minutes later a dose of the compound to be studied was given by oral route and the inhibitory effect of the reserpine was noted every hour up to the sixth hour. Ptosis was evaluated for each eye in accordance with the following scale:
4 : eyelids completely closed.
The difference between these two averages represents the average decrease of the ptosis in the treated animals as compared to the controls.

[3] = system: contractile reaction of the nictitating membrane; test: Ganglioplegic activity on the anesthetized cat (nictitating membrane); format: in vivo; conditions: intravenous 0.005, 0.1 and 1 mg/kg
Experimental: The tonus of the nictitating membrane was first noted after which the contractile reaction of the membrane to electric stimulation of the preganglionic fibre of the cervical sympathetic nerve was tested.

[4] = system: aggressivity of killer rats; test: Aggressivity of killer rats; format: in vivo, male rats
Excerpt: If, under certain conditions, male rats are kept alone in individual cages for several weeks, the become spontaneously aggressive towards any mouse, which they kill as soon as it is placed in the same cage. Mice were introduced one after another into cages containing an isolated rat and a selection was made of the rats which immediately killed three mice. In this way batches of 6 to 8 rats were constituted. The rats were then given the compound to be studied by intraperitoneal route in such a way that each batch received a higher dose than the preceding batch. […] Table V which follows contains the results obtained 30 minutes after administration of the compound to be studied.

[5] = system: spontaneous motricity; test: Spontaneous motricity in the mouse; format: in vivo
Experimental: Tests were also performed with a view to determining whether the compounds of the invention modify spontaneous motricity.

[6] = system: neuromuscular functions; test: Rotarod test of BOISSIER / neuromuscular functions; format: in vivo, mouse; conditions: 30 minutes after oral administration, mouse
[7] = system: toxicity of yohimbine; test: Potentiation of the toxicity of yohimbine (test of QUINTON); format: in vivo, male mice; conditions: 20 mg/kg, same conditions (yohimbine hydrochloride 25 mg/kg i.p.; 24 hours)
Experimental: Yohimbine is a substance which provokes an increase in the serotonine level in the brain or a decrease in norepinephrine according to the author.
For this purpose, the test of QUINTON was used which is described in Brit. J. Pharmacol. 21, 51 (1963). […] […] The percentage of mortality was noted after 24 hours.
Table III hereunder expresses the percentage of potentiation of the toxicity due to yohimbine in comparison with the controls.
The percentage in question was determined 24 hours after the administration of yohimbine.

[8] = Toxicity, method of KARBER and BEHRENS, mice; conditions: mouse, in vivo, po
Experimental: (§1) Finally, tests of toxicity were performed with compounds of the invention following the method of KARBER and BEHRENS.

[9] = system: stereotypies induced by amphetamine; test: Potentiation of the stereotypies induced by amphetamine; format: in vivo, rats; conditions: 10 mg/kg oral; amphetamine 10 mg/kg i.p.; every 30 min for 150 min
Experimental: It is commonly admitted that amphetamine induces stereotypies by stimulating the dopaminergic receptors and inhibiting the re-uptake of dopamine into the neuron.
The thymoanaleptics potentiate these stereotypies.
Thirty minutes later, a dose of 10 mg/kg of the compound to be tested was given by oral route. Note was taken of the intensity of the stereotypies every 30 minutes for 150 minutes in accordance with the following scale which indicates the behaviour of the animal.
0 : the rat is motionless and asleep
1 : the rat is motionless and awake
3 : the rat stands on its hind paws and sniffs the lid of its cage in a stereotyped manner.
4 : the rat licks the walls of its cage in a stereotyped manner
5 : the rat bites the bars of its cage or sniffs the shavings of its litter in a stereotyped manner
6 : the rat chews the shavings in a stereotyped manner
The average of the 5 results obtained for each batch was calculated and compared with the average obtained with the control animals.
The difference between these averages represents the mean increase of the steroetypies of the treated animals in comparison with the controls.

[10] = system: reserpine-induced hypothermia; test: Reserpine-induced hypothermia in the rat; format: in vivo, male rats CF1; conditions: 10 mg/kg oral; reserpine 5 mg/kg i.p.; mean to 6th hour vs controls
Experimental: as §2
An intraperitoneal dose of 5 mg/kg of reserpine was administered to batches of 5 male rats CF1 weighing an average of 300 g. Thirty minutes later, the rectal temperature was determined and then a dose of the compound to be tested was given by oral route, except to the control animals. The rectal temperature of all the animals including the controls was taken every hour up to the 6th hour.
The difference between these two averages enabled an estimation to be made regarding the antagonistic effect of the compounds of the invention on the hypothermia induced by reserpine.

[11] = system: cholinergic effects provoked by tremorine; test: Cholinolytic properties: action with respect to tremorine; format: in vivo, male mice of the OF1 strain; conditions: 5 mg/kg oral; tremorine 10 mg/kg; difference vs controls
Experimental: When injected into mice, tremorine and its metabolite, oxotremorine, produce central cholinergic effects, i.e. normal and provoked tremor as well as peripheral cholinergic effects i.e. weeping, sweating diarrhoea and salivation.
Male mice of the OF1 strain weighing 22 g, were divided into batches of 10. Each batch with the exception of the control animals, received, by oral route, a dose of the compound to be tested.
Thirty minutes later, 10 mg/kg of tremorine were administered to all the batches and thirty minutes after the injection of tremorine note was taken of the cholinergic effects on each animal in accordance with the following scale: […]

[12] = Toxicity, method of KARBER and BEHRENS, rats; conditions: rat, in vivo
Experimental: as §1

Compound: CC(Oc1cccc2ccccc12)C(N)=NO (stereo not drawn) [Compound 1, 2-(1-Naphthyloxy)-propionamidoxime]
- ED50 ([1]; po, 1.5 h, intragastric route, 90 minutes after administration): 0.42 mg/kg
- ED50 ([1]; oral route): 0.63 mg/kg
- Average decrease of Ptosis [2]: 1.7
- intensity of the contractions of the nictitating membrane (ganglioplegic effect) [3]: did not modify the intensity of the contractions of the membrane
- inhibition in vivo at 3 mg/kg ([4]; Rattus norvegicus, ip, 0.5 h, 3 mg/kg i.p., 30 minutes after administration): 100%
- antiaggressive properties ([4]; conclusion from Table V): powerful antiaggressive properties
- effect on curiosity of the animal ([5]; 3 mg/kg intragastric, mouse): without, however modifying the curiosity of the animal
- reduction of spontaneous motricity ([5]; 3 mg/kg intragastric, mouse, 30 minutes after administration): 50%
- sedation at doses active against aggressivity ([5]; conclusion from ratio of doses): not sedative at the doses which are active against aggressivity
- neurotoxic dose 50 (NTD 50) relative to ED50 (isolated mouse) [6]: sufficiently far removed from the ED50
- Potentiation of the toxicity of yohimbine [7]: 50%
- LD50 at 24 h [8]: 380 mg/kg
- Average increase of the stereotypies [9]: 1
- Average inhibition of hypothermia (positive °C) [10]: 0.7 °C
- Central response tremor: Normal [11]: 0
- Central response tremor: Provoked [11]: 0
- Peripheral cholinergic response: Salivat. [11]: 0
- Peripheral cholinergic response: Sweating [11]: 0
- Peripheral cholinergic response: Weeping [11]: 0
- LD50 at 24 h ([12]; ip): 50 mg/kg
- LD50 at 24 h ([12]; po): 108 mg/kg
